# Patent publication US7902181B2, “Compounds 010” (AstraZeneca AB, priority 2007, dated 2011)
# Structures can show the parent of a compound that is named as a salt.
# Biological target: Recombinant Human (rh) DPP1 (Homo sapiens, UniProt P53634)
# Assay: Fluorescence Assay for Recombinant Human (rh) DPP1
# Assay type: biochemical
# Conditions: rhDPP1; substrate H-Gly-Arg-AMC; pH5.0; 30 min pre-incubation, 60 min reaction at 22° C.; highest concentration 10 μM; read-out: DPP1 activity, pIC50 (converted)
# Procedure: Fluorescence Assay for Recombinant Human (rh) DPP1
# The activity of DPP1 was determined by measuring the enzymatic release of aminomethyl coumarin (AMC) from the peptide substrate (H-Gly-Arg-AMC), which leads to an increase in fluorescence intensity at λex=350 nm and λem=450 nm. The assay was carried out in black 384 well plates in a final volume of 50 μl at 22° C. The assay conditions contained the following: 25 mM piperazine buffer pH5.0; 50 mM NaCl, 5 mM DTT; 0.01% (v/v) Triton X-100; 100 μM H-Gly-Arg-AMC and rhDPP1 ([…]). Potential inhibitors were made up in DMSO and then diluted in the assay to give a final concentration of 1% (v/v) DMSO. A 12-point half-log dilution of the inhibitors (highest concentration 10 μM) was tested and the pIC50 determined using a 4-parameter logistic equation in a non-linear curve fitting routine. A standard DPP1 inhibitor (vinyl sulfone, see below) was used as a positive control in the assay. Routinely, inhibitors were pre-incubated with rhDPP1 for 30 min prior to the addition of the peptide substrate to start the reaction for a further 60 min at 22° C. After that the plates were immediately read in a fluorescence plate reader using the above emission and excitation wavelengths [modified from Kam, C M, Gotz, M G, Koot, G, McGuire, M J, Thiele, D L, Hudig, D & Powers, J C (2004). Arch Biochem Biophys, 427, 123-134 & McGuire, M J, Lipsky, P E & Thiele, D L (1992). Arch Biochem Biophys, 295, 280-288].
# Chain of Recombinant Human (rh) DPP1 (P53634 25-463): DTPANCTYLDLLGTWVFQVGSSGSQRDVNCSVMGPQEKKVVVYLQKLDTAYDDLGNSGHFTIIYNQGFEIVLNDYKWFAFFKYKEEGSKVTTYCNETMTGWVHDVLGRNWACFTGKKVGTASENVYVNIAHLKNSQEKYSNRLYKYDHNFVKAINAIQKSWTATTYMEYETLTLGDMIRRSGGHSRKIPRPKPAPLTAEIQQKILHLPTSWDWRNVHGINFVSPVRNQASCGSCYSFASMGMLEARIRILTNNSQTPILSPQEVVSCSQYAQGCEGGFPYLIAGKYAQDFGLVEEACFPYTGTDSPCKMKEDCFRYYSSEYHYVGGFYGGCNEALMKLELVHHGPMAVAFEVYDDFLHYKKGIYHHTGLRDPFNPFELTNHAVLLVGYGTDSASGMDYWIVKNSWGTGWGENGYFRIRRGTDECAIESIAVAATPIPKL
row,SMILES,IC50
1,"CSc1ccc(-c2ccc(C[C@@H](C#N)NC(=O)[C@@H]3CCCCN3)cc2)cc1C#N [Example 63, (S)-N-((S)-1-cyano-2-(3′-cyano-4′-(methylthio)biphenyl-4-yl)ethyl)piperidine-2-carboxamide]",0.00794 µM
2,"CS(=O)(=O)c1ccc(-c2ccc(C[C@@H](C#N)NC(=O)[C@@H]3CCCCN3)cc2)cc1C#N [Example 64, (S)-N-((S)-1-Cyano-2-(3′-cyano-4′-(methylsulfonyl)biphenyl-4-yl)ethyl)piperidine-2-carboxamide]",0.01 µM
3,"Cn1c(=O)sc2ccc(-c3ccc(C[C@@H](C#N)NC(=O)[C@@H]4CCCCN4)cc3)cc21 [Example 66, (S)-N-((S)-1-Cyano-2-(4-(3-methyl-2-oxo-2,3-dihydrobenzo[d]thiazol-5-yl)phenyl)ethyl) piperidine-2-carboxamide]",0.002 µM
4,"N#C[C@H](Cc1ccc(-c2ccc3c(c2)CNS3(=O)=O)cc1)NC(=O)[C@@H]1CCCCN1 [Example 67, (2S)-N-{(1S)-1-cyano-2-[4-(1,1-dioxido-2,3-dihydro-1,2-benzisothiazol-5-yl)phenyl]ethyl} piperidine-2-carboxamide]",0.01 µM
5,"N#C[C@H](Cc1ccc(-c2ccc3c(c2)SCC(=O)N3)cc1)NC(=O)[C@@H]1CCCCN1 [Example 68, (S)-N-((S)-1-Cyano-2-(4-(3-oxo-3,4-dihydro-2H-benzo[b][1,4]thia-zin-7-yl)phenyl)ethyl) piperidine-2-carboxamide]",0.0158 µM
6,CN1Cc2cc(-c3ccc(C[C@@H](C#N)NC(=O)[C@@H]4CCCCN4)cc3)ccc2S1(=O)=O [Example 69],0.0126 µM
7,"CCc1ccc(-c2ccc(C[C@@H](C#N)NC(=O)[C@@H]3CCCCN3)cc2)cc1 [Example 70, (S)-N-((S)-1-Cyano-2-(4′-ethylbiphenyl-4-yl)ethyl)piperidine-2-carboxamide Trifluoroacetate]",0.02 µM
8,"CNS(=O)(=O)c1ccc(-c2ccc(C[C@@H](C#N)NC(=O)[C@@H]3CCCCN3)cc2)cc1 [Example 71, (S)-N-((S)-1-Cyano-2-(4′-(N-methylsulfamoyl)biphenyl-4-yl)ethyl)piperidine-2-carboxamide Trifluoroacetate]",0.00631 µM
9,"N#C[C@H](Cc1ccc(-c2ccc(S(=O)(=O)N3CCC3)cc2)cc1)NC(=O)[C@@H]1CCCCN1 [Example 72, (S)-N-((S)-2-(4′-(Azetidin-1-ylsulfonyl)biphenyl-4-yl)-1-cyanoethyl)piperidine-2-carboxamide Trifluoroacetate]",0.00398 µM
10,"N#C[C@H](Cc1ccc(-c2ccc(S(=O)(=O)NCCO)cc2)cc1)NC(=O)[C@@H]1CCCCN1 [Example 73, (S)-N-((S)-1-Cyano-2-(4′-(N-(2-hydroxyethyl)sulfamoyl)biphenyl-4-yl)ethyl)piperidine-2-carboxamide]",0.01 µM
11,"CNC(=O)c1ccc(-c2ccc(C[C@@H](C#N)NC(=O)[C@@H]3CCCCN3)cc2)cc1 [Example 74, (S)-N-((S)-1-Cyano-2-(4′-(methylcarbamoyl)biphenyl-4-yl)ethyl)piperidine-2-carboxamide Trifluoroacetate]",0.1 µM
12,"N#C[C@H](Cc1ccc(-c2ccc(C(=O)N3CCCC3)cc2)cc1)NC(=O)[C@@H]1CCCCN1 [Example 75, (S)-N-((S)-1-Cyano-2-(4′-(pyrrolidine-1-carbonyl)biphenyl-4-yl)ethyl)piperidine-2-carboxamide Trifluoroacetate]",0.2 µM
13,"CN1CCN(C(=O)c2ccc(-c3ccc(C[C@@H](C#N)NC(=O)[C@@H]4CCCCN4)cc3)cc2)CC1 [Example 76, (S)-N-((S)-1-Cyano-2-(4′-(4-methylpiperazine-1-carbonyl)biphenyl-4-yl)ethyl)piperidine-2-carboxamide Trifluoroacetate]",0.158 µM
14,"N#Cc1ccc(-c2ccc(C[C@@H](C#N)NC(=O)[C@@H]3CCCCN3)cn2)cc1 [Example 77, (S)-N-((S)-1-Cyano-2-(6-(4-cyanophenyl)pyridin-3-yl)ethyl)piperidine-2-carboxamide Trifluoroacetate]",0.0316 µM
15,"N#Cc1cccc(-c2ccc(C[C@@H](C#N)NC(=O)[C@@H]3CCCCN3)cn2)c1 [Example 78, (S)-N-((S)-1-Cyano-2-(6-(3-cyanophenyl)pyridin-3-yl)ethyl)piperidine-2-carboxamide Trifluoroacetate]",0.1 µM
16,"N#C[C@H](Cc1ccc(-c2ccccc2O)nc1)NC(=O)[C@@H]1CCCCN1 [Example 79, (S)-N-((S)-1-Cyano-2-(6-(2-hydroxyphenyl)pyridin-3-yl)ethyl)piperidine-2-carboxamide]",0.316 µM
17,"CN(C)S(=O)(=O)c1ccc(-c2ccc(C[C@@H](C#N)NC(=O)[C@@H]3CCCCN3)cn2)cc1 [Example 80, (S)-N-((S)-1-Cyano-2-(6-(4-(N,N-dimethylsulfamoyl)phenyl)pyridin-3-yl)ethyl)piperidine-2-carboxamide Trifluoroacetate]",0.0316 µM
18,"N#C[C@H](Cc1ccc(-c2ccc(C(F)(F)F)cc2)cc1)NC(=O)[C@@H]1CCCCN1 [Example 82, (S)-N-((S)-1-Cyano-2-(4′-(trifluoromethyl)biphenyl-4-yl)ethyl)piperidine-2-carboxamide Trifluoroacetate]",0.00501 µM
19,"N#C[C@H](Cc1ccc(-c2cccc(C(=O)N3CCCCC3)c2)cc1)NC(=O)[C@@H]1CCCCN1 [Example 83, (S)-N-((S)-1-Cyano-2-(3′-(piperidine-1-carbonyl)biphenyl-4-yl)ethyl)piperidine-2-carboxamide Trifluoroacetate]",0.2 µM
20,"N#C[C@H](Cc1ccc(-c2cccc(C(=O)Nc3nccs3)c2)cc1)NC(=O)[C@@H]1CCCCN1 [Example 84, (S)-N-((S)-1-Cyano-2-(3′-(thiazol-2-ylcarbamoyl)biphenyl-4-yl)ethyl)piperidine-2-carboxamide Trifluoroacetate]",0.0251 µM
21,"N#CCCNC(=O)c1cccc(-c2ccc(C[C@@H](C#N)NC(=O)[C@@H]3CCCCN3)cc2)c1 [Example 85, (S)-N-((S)-1-Cyano-2-(3′-(2-cyanoethylcarbamoyl)biphenyl-4-yl)ethyl)piperidine-2-carboxamide]",0.126 µM
22,"N#C[C@H](Cc1ccc(-c2cccc(CC(N)=O)c2)cc1)NC(=O)[C@@H]1CCCCN1 [Example 86, (S)-N-((S)-2-(3′-(2-amino-2-oxoethyl)biphenyl-4-yl)-1-cyanoethyl)piperidine-2-carboxamide Trifluoroacetate]",0.0794 µM
23,"CN(C)S(=O)(=O)c1cccc(-c2ccc(C[C@@H](C#N)NC(=O)[C@@H]3CCCCN3)cc2)c1 [Example 87, (S)-N-((S)-1-Cyano-2-(3′-(N,N-dimethylsulfamoyl)biphenyl-4-yl)ethyl)piperidine-2-carboxamide Trifluoroacetate]",0.0501 µM
24,"N#C[C@H](Cc1ccc(-c2cccc(S(=O)(=O)N3CCCC3)c2)cc1)NC(=O)[C@@H]1CCCCN1 [Example 88, (S)-N-((S)-1-Cyano-2-(3′-(pyrrolidin-1-ylsulfonyl)biphenyl-4-yl)ethyl)piperidine-2-carboxamide Trifluoroacetate]",0.0631 µM
25,"CS(=O)(=O)NCc1cccc(-c2ccc(C[C@@H](C#N)NC(=O)[C@@H]3CCCCN3)cc2)c1 [Example 89, (S)-N-((S)-1-Cyano-2-(3′-(methylsulfonamidomethyl)biphenyl-4-yl)ethyl)piperidine-2-carboxamide Trifluoroacetate]",0.0631 µM
